Reference: ChEMBL document CHEMBL3044730, “Synthesis, antimycobacterial, antiviral, antimicrobial activities, and QSAR studies of nicotinic acid benzylidene hydrazide derivatives” (Med Chem Res, 2012)
In brackets after ≈: the same amount, converted by molar mass.

Tests used:
[1] = Cytotoxicity against Chlorocebus aethiops (African green monkey) Vero cells assessed as alteration in cell morphology by microscopy; format: cell-based; details: chlorocebus sabaeus
Punta Toro virus = experiment: Antiviral activity against Punta Toro virus infected Vero cells assessed as inhibition of virus-induced cytopathicity; format: functional, organism-based
Coxsackievirus B4 [2] = experiment: Antiviral activity against Human coxsackievirus B4 infected Vero cells assessed as inhibition of virus-induced cytopathicity; format: functional, organism-based; details: Enterovirus B
Sindbis virus = experiment: Antiviral activity against Sindbis virus infected Vero cells assessed as inhibition of virus-induced cytopathicity; format: functional, organism-based
[3] = test system: Mammalian orthoreovirus 1; experiment: Antiviral activity against Mammalian orthoreovirus 1 infected Vero cells assessed as inhibition of virus-induced cytopathicity by microscopy; format: functional, organism-based; details: Mammalian orthoreovirus 1, Vero
Human respirovirus 3 = experiment: Antiviral activity against Human parainfluenza virus 3 infected Vero cells assessed as inhibition of virus-induced cytopathicity by microscopy; format: functional, organism-based; details: Human respirovirus 3, Vero
[4] = Cytotoxicity against Homo sapiens (human) HeLa cells assessed as alteration in cell morphology by microscopy; format: cell-based
[5] = test system: Respiratory syncytial virus; experiment: Antiviral activity against Respiratory syncytial virus infected human HeLa cells assessed as inhibition of virus-induced cytopathicity by microscopy; format: functional, organism-based
Coxsackievirus B4 [6] = experiment: Antiviral activity against Human coxsackievirus B4 infected human HeLa cells assessed as inhibition of virus-induced cytopathicity by microscopy; format: functional, organism-based; details: Enterovirus B
[7] = test system: Vesicular stomatitis virus; experiment: Antiviral activity against Vesicular stomatitis virus infected human HeLa cells assessed as inhibition of virus-induced cytopathicity by microscopy; format: functional, organism-based
[8] = Cytotoxicity against Homo sapiens (human) HEL cells assessed as alteration in cell morphology by microscopy; format: cell-based
[9] = test system: Human herpesvirus 3 strain Oka vaccine; experiment: Antiviral activity against Human herpesvirus 3 strain Oka vaccine OKA 07-1 (Varicella zoster virus) infected in human HEL cells assessed as inhibition of virus-induced cytopathicity; format: functional, organism-based; details: Human alphaherpesvirus 3, OKA 07-1, HEL
[10] = test system: Human herpesvirus 5 strain AD169; experiment: Antiviral activity against Human herpesvirus 5 strain AD169 Davis infected human HEL cells assessed as inhibition of virus-induced cytopathicity by microscopy; format: functional, organism-based; details: Human betaherpesvirus 5, Davis
Human alphaherpesvirus 1 [11] = experiment: Antiviral activity against TK(-) aciclovir-resistant Human herpesvirus 1 strain KOS infected in human HEL cells assessed as inhibition of virus-induced cytopathicity; format: functional, organism-based; details: Human alphaherpesvirus 1, KOS
Human alphaherpesvirus 2 = experiment: Antiviral activity against Human herpesvirus 2 strain G infected human HEL cells assessed as inhibition of virus-induced cytopathicity by microscopy; format: functional, organism-based; details: Human alphaherpesvirus 2, strain G
Vaccinia virus = experiment: Antiviral activity against Vaccinia virus infected human HEL cells assessed as inhibition of virus-induced cytopathicity by microscopy; format: functional, organism-based; details: Orthopoxvirus vaccinia
[12] = Cytotoxicity against Homo sapiens (human) MT4 cells after 4 days by MTT assay; format: cell-based
Human alphaherpesvirus 1 [13] = experiment: Antiviral activity against Human herpesvirus 1 strain KOS infected in human HEL cells assessed as inhibition of virus-induced cytopathicity by microscopy by microscopy; format: functional, organism-based; details: Human alphaherpesvirus 1, KOS
[14] = test system: Human immunodeficiency virus 2; experiment: Antiviral activity against Human immunodeficiency virus type 2 (ISOLATE ROD) infected MT4 cells assessed as inhibition of virus-induced cytopathic effect after 4 days by MTT assay; format: functional, organism-based; details: Human immunodeficiency virus 2, ISOLATE ROD, MT4, 96 h
[15] = test system: Human immunodeficiency virus 1; experiment: Antiviral activity against Human immunodeficiency virus 1 IIIB infected MT4 cells assessed as inhibition of virus-induced cytopathic effect after 4 days by MTT assay; format: functional, organism-based; details: MT4, 96 h
Candida albicans [16] = experiment: Antimicrobial activity against Candida albicans after 2 days by serial dilution method; format: functional; parameters: unit not given here
Candida albicans [17] = experiment: Antimicrobial activity against Candida albicans after 7 days by serial dilution method; format: functional; parameters: unit not given here
Escherichia coli = experiment: Antimicrobial activity against Escherichia coli after 24 hr by serial dilution method; format: functional; parameters: unit not given here
Staphylococcus aureus = experiment: Antimicrobial activity against Staphylococcus aureus after 24 hr by serial dilution method; format: functional; parameters: unit not given here
Bacillus subtilis = experiment: Antimicrobial activity against Bacillus subtilis after 24 hr by serial dilution method; format: functional; parameters: unit not given here
[18] = test system: Mycobacterium tuberculosis; experiment: Antimicrobial activity against Mycobacterium tuberculosis by agar dilution method; format: functional

Compound | MCC [1] [µg/mL] | EC50 (Punta Toro virus) [µg/mL] | EC50 (Coxsackievirus B4 [2]) [µg/mL] | EC50 (Sindbis virus) [µg/mL] | EC50 [3] [µg/mL] | EC50 (Human respirovirus 3) [µg/mL] | MCC [4] [µg/mL] | EC50 [5] [µg/mL] | EC50 (Coxsackievirus B4 [6]) [µg/mL] | EC50 [7] [µg/mL] | CC50 [8] [µg/mL] | MCC [8] [µg/mL] | EC50 [9] [µg/mL] | EC50 [10] [µg/mL] | EC50 (Human alphaherpesvirus 1 [11]) [µg/mL] | EC50 (Human alphaherpesvirus 2) [µg/mL] | EC50 (Vaccinia virus) [µg/mL] | CC50 at 96 h [12] [µg/mL] | EC50 (Human alphaherpesvirus 1 [13]) [µg/mL] | EC50 [14] [µg/mL] | also measured
O=C(N/N=C/c1cccc(Br)c1)c1cccnc1 | ≥ 100 | > 100 | > 100 | > 100 | > 100 | > 100 | ≥ 100 | > 100 | > 100 | > 100 | 55 (≈ 181 µM) | > 100 | > 100 | > 100 | > 100 | > 100 | > 100 | 66 (≈ 217 µM) | > 100 | > 66 | EC50 [15]: > 66 µg/mL; -logMIC (Candida albicans [16]): 1.38; -logMIC (Candida albicans [17]): 1.99; -logMIC (Escherichia coli): 1.39; -logMIC (Staphylococcus aureus): 1.09; -logMIC (Bacillus subtilis): 1.39; MIC [18]: > 25 µg/mL
O=C(N/N=C/c1ccccc1Br)c1cccnc1 | > 100 | > 100 | > 100 | > 100 | > 100 | > 100 | > 100 | > 100 | > 100 | > 100 | 2.6 (≈ 8.55 µM) | 100 | > 51 | > 100 | > 20 | > 20 | > 20 | ≥ 0.22 | > 20 | > 0.22 | EC50 [15]: > 0.22 µg/mL; -logMIC (Candida albicans [16]): 1.39; -logMIC (Candida albicans [17]): 1.69; -logMIC (Escherichia coli): 1.39; -logMIC (Staphylococcus aureus): 1.09; -logMIC (Bacillus subtilis): 1.39; MIC [18]: > 25 µg/mL
O=C(N/N=C/c1ccc(Br)cc1)c1cccnc1 | > 100 | > 100 | > 100 | > 100 | > 100 | > 100 | > 100 | > 100 | > 100 | > 100 | 48 (≈ 158 µM) | > 100 | > 100 | > 100 | > 100 | > 100 | > 100 | 61 (≈ 201 µM) | > 100 | > 61 | EC50 [15]: > 61 µg/mL; -logMIC (Candida albicans [16]): 1.39; -logMIC (Candida albicans [17]): 1.39; -logMIC (Escherichia coli): 1.39; -logMIC (Staphylococcus aureus): 1.09; -logMIC (Bacillus subtilis): 1.39; MIC [18]: 25 µg/mL (≈ 82.2 µM)
O=C(N/N=C/c1ccc(F)cc1)c1cccnc1 | > 100 | > 100 | > 100 | > 100 | > 100 | > 100 | > 100 | > 100 | > 100 | > 100 | > 100 | > 100 | > 100 | > 100 | > 100 | > 100 | > 100 | > 125 | > 100 | > 125 | EC50 [15]: > 125 µg/mL; -logMIC (Candida albicans [16]): 1.29; -logMIC (Candida albicans [17]): 1.59; -logMIC (Escherichia coli): 1.29; -logMIC (Staphylococcus aureus): 1.29; -logMIC (Bacillus subtilis): 1.29; MIC [18]: 25 µg/mL (≈ 103 µM)
O=C(N/N=C/c1ccccc1[N+](=O)[O-])c1cccnc1 | > 100 | > 100 | > 100 | > 100 | > 100 | > 100 | > 100 | > 100 | > 100 | > 100 | 46 (≈ 170 µM) | > 100 | > 100 | > 100 | > 100 | > 100 | > 100 | 68 (≈ 252 µM) | > 100 | > 68 | EC50 [15]: > 68 µg/mL; -logMIC (Candida albicans [16]): 1.33; -logMIC (Candida albicans [17]): 1.94; -logMIC (Escherichia coli): 1.33; -logMIC (Staphylococcus aureus): 1.33; -logMIC (Bacillus subtilis): 1.94; MIC [18]: > 25 µg/mL
O=C(N/N=C/c1cccc([N+](=O)[O-])c1)c1cccnc1 | ≥ 100 | > 100 | > 100 | > 100 | > 100 | > 100 | 20 | > 4 | > 4 | > 4 | 13 (≈ 48.1 µM) | > 100 | > 100 | > 20 | > 100 | > 100 | > 100 | 54 (≈ 200 µM) | > 100 | > 54 | EC50 [15]: > 54 µg/mL; -logMIC (Candida albicans [16]): 1.33; -logMIC (Candida albicans [17]): 1.64; -logMIC (Escherichia coli): 1.94; -logMIC (Staphylococcus aureus): 1.33; -logMIC (Bacillus subtilis): 1.64; MIC [18]: > 25 µg/mL
O=C(N/N=C/c1ccc([N+](=O)[O-])cc1)c1cccnc1 | ≥ 0.8 | > 0.8 | > 0.8 | > 0.8 | > 0.8 | > 0.8 | 0.8 | > 0.16 | > 0.16 | > 0.16 | < 0.16 | ≥ 0.8 | > 0.16 | > 0.16 | > 0.8 | > 0.8 | > 0.8 | 0.1 (≈ 0.37 µM) | > 0.8 | > 0.1 | EC50 [15]: > 0.1 µg/mL; -logMIC (Candida albicans [16]): 1.33; -logMIC (Candida albicans [17]): 1.33; -logMIC (Escherichia coli): 1.94; -logMIC (Staphylococcus aureus): 1.03; -logMIC (Bacillus subtilis): 1.33; MIC [18]: > 25 µg/mL
